Data: patent publication US20030181446A1, “Novel N-acylated heterocycles” (Recordati S.A., priority 2001, published 2003)

Legend:
[1] = molecular target: T1, human 5HT1A-serotonergic receptor (Homo sapiens, UniProt P08908); assay: Radioligand binding to recombinant 5-HT1A receptors; settings: 1 nM [3H]8-OH-DPAT, membranes of HeLa cells transfected with human 5HT1A receptor; Ki from IC50 by Cheng & Prusoff; read-out: Binding affinity for 5HT1A receptors, Ki
T1 construct: expressed in transfected cells; cell membranes
T1 sequence (P08908 1-422): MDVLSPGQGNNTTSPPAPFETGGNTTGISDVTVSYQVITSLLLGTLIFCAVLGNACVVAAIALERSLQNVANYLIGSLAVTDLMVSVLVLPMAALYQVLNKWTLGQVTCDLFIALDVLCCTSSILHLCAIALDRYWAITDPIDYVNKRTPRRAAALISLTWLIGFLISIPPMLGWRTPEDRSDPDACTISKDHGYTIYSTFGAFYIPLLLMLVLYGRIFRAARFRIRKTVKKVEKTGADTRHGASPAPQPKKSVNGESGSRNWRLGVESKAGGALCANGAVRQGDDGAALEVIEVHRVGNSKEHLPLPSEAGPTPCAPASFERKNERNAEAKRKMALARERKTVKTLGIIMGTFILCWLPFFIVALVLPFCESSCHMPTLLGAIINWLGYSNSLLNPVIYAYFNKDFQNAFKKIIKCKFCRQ
Procedure: Genomic clone G-21 coding for the human 5HT1A-serotonergic receptor was stably transfected in a human cell line (HeLa). HeLa cells were grown as monolayers in Dulbecco's modified Eagle medium (DMEM), containing 10% foetal bovine serum, gentamicin ([…]) and 5% carbon dioxide, at 37° C. The cells were detached from the growth flask at 95% confluence by a cell scraper and were lysed in cold 5 mM Tris and 5 mM EDTA buffer (pH 7.4). The homogenates were centrifuged at 40000×g×20 minutes and the pellets were resuspended in a small volume of cold 5 mM Tris and 5 mM EDTA buffer (pH 7.4) and immediately frozen and stored at −70° C. until use. On the day of experiment, the cell membranes were resuspended in incubation buffer: 50 mM Tris HCl (pH 7.4), 2.5 mM MgCl2, […] (Fargin et al., Nature 335, 358-360, 1988). […] Non-specific binding was determined in the presence of 10 μM 5-HT. […]
The affinity of the tested compounds was evaluated as inhibition of specific binding of the radioligand to 5-HT1A receptors (IC50) by using the non-linear curve-fitting program Allfit (De Lean et al., Am. J. Physiol. 235, E97-E102 (1978). The IC50 value was converted to an affinity constant (Ki) by the equation of Cheng & Prusoff (Cheng Y. C., Prusoff W. H., Biochem. Pharmacol. 22, 3099-3108 (1973)).

[2] = tested on: bladder volume capacity (BVC) and micturition pressure (MP); assay: Effect on cystometric parameters in conscious rats after oral administration; type: in vivo, rat; settings: 3 mg/kg p.o., 1-5 h after treatment, versus vehicle
Procedure: Male Sprague-Dawley rats [Crl: CD° (SD) BR] of 300-400 g supplied by Charles River Italia were used. The animals were housed with free access to food and water and maintained on a forced 12-hour-light/12-hour-dark cycle at 22-24° C. of temperature, except during the experiment. To quantify urodynamic parameters in conscious rats, cystometrographic studies were performed according to the procedure previously reported (Guarneri et al., Pharmacol. Res. 24: 175, 1991).
Briefly, the rats were anaesthetised by intraperitoneal administration of 3 ml/kg of Equithensin solution (pentobarbital 30 mg/kg and chloral hydrate 125 mg/kg) and placed in a supine position. An approximately-10-mm-long midline incision was made in the shaved and cleaned abdominal wall. The urinary bladder was gently freed from adhering tissues, emptied and then cannulated via an incision in the bladder body, using a polyethylene cannula (0.58-mm internal diameter, 0.96-mm external diameter) which was permanently sutured with silk thread. The cannula was exteriorised through a subcutaneous tunnel in the retroscapular area, where it was connected to a plastic adapter in order to avoid the risk of removal by the animal. For drug testing, the rats were utilised one day after implantation.
On the day of the experiment, the rats were placed in modified Bollman cages, i.e. restraining cages that were large enough to permit the rats to adopt a normal crouched posture, but narrow enough to prevent turning around. […] The intraluminal-pressure signal during infusion of saline into the bladder was continuously recorded on a polygraph (Rectigraph-8K San-ei with BM614/2 amplifier from Biomedica Mangoni) and, from the cystometrogram, two urodynamic parameters were evaluated: bladder volume capacity (BVC) and micturition pressure (MP). […] Basal BVC and MP values were evaluated as mean of the values observed in the cystometrograms recorded in an initial period of 30-60 minutes. […] The bladder infusion restarted and changes in BVC and MP were evaluated from the mean values obtained in the cystometrograms observed during 1, 2, 3, 4 and 5 hours after treatment. […]
All data were expressed as mean±standard error. Time-course data were analysed by S.A.S./STAT software, version 6.12. The difference between vehicle and active-treatment effect was evaluated by: General Linear Model Procedure—Repeated Measures Analysis of Variance: Univariate test of Hypotheses for within Subject Effects—Analysis of Variance of Contrast Variables. […]

[3] = tested on: rhythmic bladder-voiding contractions; assay: Effects on rhythmic bladder-voiding contractions induced by bladder filling in anaesthetised rats; type: in vivo, rat; settings: intravenous administration
Procedure: Female Sprague-Dawley rats weighing 225-275 g (Crl: CDo Br, Charles River Italia) were used. The animals were housed with free access to food and water and maintained on a forced 12-hour alternating light-dark cycle at 22-24° C. for at least one week, except during the experiment. The activity on rhythmic bladder voiding contractions was evaluated according to the method of Dray (Dray J., Pharmacol. Methods, 13:157, 1985), with some modifications as in Guarneri (Guarneri, Pharmacol. Res. 27:173, 1993). Briefly, the rats were anaesthetised by subcutaneous injection of 1.25 g/kg (5 ml/kg) urethane, after which the urinary bladder was catheterised via the urethra using PE 50 polyethylene tubing filled with physiological saline. […]
From the cystometrogram, the number of contractions recorded 15 minutes before (basal values) and after treatment, as well as the mean amplitude of these contractions (mean height of the peaks in mmHg), was evaluated.
Since most compounds produced an effect that was relatively rapid in onset and led to a complete cessation of bladder contractions, bioactivity was conveniently estimated by measuring the duration of bladder quiescence (i.e. the length of the time during which no contractions occurred). The number of tested animals showing a reduction in the number of contractions higher than 30% of that observed in the basal period was recorded too. […]

| Compound | Ki [1] [nM] | bladder volume capacity (BVC) change (in words) [2] | micturition pressure (MP) change (in words) [2] | cessation of bladder contractions (in words) [3] | effect on amplitude of the contractions (in words) [3] |
| --- | --- | --- | --- | --- | --- |
| 1-(2-Ethylbutanoyl-1,2,3,4-tetrahydroquinoline-2-ylmethyl)-4-(4-indolyl)-piperazine [Example 24A] | 12.9 | – | – | – | – |
| O=C(C1CCCCC1)N1c2ccccc2CCC1CN1CCN(c2cccc3[nH]ccc23)CC1 (racemic) [Example 1, 1-(1-Cyclohexanecarbonyl-1,2,3,4-tetrahydroquinoline-2-ylmethyl)-4-(4-indolyl)piperazine] | – | effective in increasing the bladder volume capacity | without significant effects on micturition pressure | – | – |
| CC(C)Oc1cc(Cl)ccc1N1CCN(CC2CCc3ccccc3N2C(=O)C2CCCCC2)CC1 (centres unmarked) [Example 60A] | 10.1 | – | – | – | – |
| CCN(CC)CC#CCOC(=O)C(O)(c1ccccc1)C1CCCCC1 (centres unmarked) [Oxybutynin, oxybutynin] | – | slight, not-significant increase of BVC | greatly reduced the micturition pressure values | does not cause cessation of bladder contractions | only decreased the amplitude of the contractions in a dose-related manner |
